Molecules are shown by their SMILES. Read-outs that look alike come from different tables or passages of the source. Square brackets hold non-standard residues; d marks the D form. Peptide text beside a SMILES is read from it. * marks the point of attachment. X1 = O=C(CSCC(=O)*)NCCN1C(=O)c2ccccc2C1=O; Aib = CC(C)(N)C(=O)O

Holding throughout (assay type): cell-based
For assay [1], the target named is T1, GLP-1R (Homo sapiens, UniProt P43220). Description: PathHunter β-arrestin assay. The method, boiled down: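 Recruitment of β-arrestin is measured by luminescence after cells, plated overnight, receive serially diluted agonist for 90 min at 37 °C in medium with 0.2% BSA. Detection reagent then develops for 3 h at room temperature, protected from light.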
In the next assay the target is T2, GIP-R (Homo sapiens, UniProt P48546).
T2 sequence (P48546 22-466): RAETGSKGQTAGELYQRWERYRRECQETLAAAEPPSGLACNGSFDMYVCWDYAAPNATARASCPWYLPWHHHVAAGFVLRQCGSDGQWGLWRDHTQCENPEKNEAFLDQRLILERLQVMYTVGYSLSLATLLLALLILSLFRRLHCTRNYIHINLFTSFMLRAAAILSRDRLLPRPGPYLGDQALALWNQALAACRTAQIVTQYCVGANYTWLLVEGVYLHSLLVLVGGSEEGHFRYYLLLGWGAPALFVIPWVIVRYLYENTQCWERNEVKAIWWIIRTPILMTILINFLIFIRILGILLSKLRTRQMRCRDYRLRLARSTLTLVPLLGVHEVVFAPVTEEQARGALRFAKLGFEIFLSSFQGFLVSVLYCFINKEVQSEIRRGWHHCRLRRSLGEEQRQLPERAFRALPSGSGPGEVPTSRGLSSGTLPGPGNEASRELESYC
Description: HitHunter cAMP assay (GIP-R). Particulars: for Emax: read-out: (Emax) GIP-R. The essentials: (§1)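 Agonist stimulation lasts 30 min at room temperature on 10,000 cells per well, with phosphodiesterase blocked by 625 μM IBMX. Accumulated cAMP is quantified by competitive antibody luminescence after overnight development.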
For orientation: Changes in cAMP serve as a functional read-out for many G protein-coupled receptors.

The target of assay [2] is T1, GLP-1R. As to the kind of experiment: HitHunter cAMP assay (GLP-1R). Particulars: for Emax: read-out: (Emax) GLP-1R. The essentials: as §1
[3] abbreviates: PathHunter β-arrestin assay, read-out: β-arrestin activity EC50.
Setting [4] is: Table 3A, cAMP, read-out: EC50 GIP-R/nM.
Where [5] appears, read: Table 3A, cAMP, read-out: EC50 GLP-1R/nM.

T1 sequence (P43220 24-463): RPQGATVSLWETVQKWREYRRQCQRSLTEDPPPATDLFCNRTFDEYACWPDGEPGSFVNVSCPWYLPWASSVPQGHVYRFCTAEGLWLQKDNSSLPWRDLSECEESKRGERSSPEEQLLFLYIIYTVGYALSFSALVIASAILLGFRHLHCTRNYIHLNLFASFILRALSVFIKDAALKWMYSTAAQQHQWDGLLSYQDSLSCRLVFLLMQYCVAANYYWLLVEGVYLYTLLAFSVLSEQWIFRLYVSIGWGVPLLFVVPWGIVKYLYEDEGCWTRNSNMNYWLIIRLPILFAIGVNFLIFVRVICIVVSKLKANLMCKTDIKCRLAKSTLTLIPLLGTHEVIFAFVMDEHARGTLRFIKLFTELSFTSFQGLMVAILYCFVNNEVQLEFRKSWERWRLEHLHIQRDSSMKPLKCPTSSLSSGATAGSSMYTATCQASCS

Broadly, the Emax is the greatest response seen or fitted, relative to the assay's reference. `CC[C@H](C)[C@H](NC(=O)[C@H](CO)NC(=O)[C@H](Cc1ccc(O)cc1)NC(=O)[C@H](CC(=O)O)NC(=O)[C@H](CO)NC(=O)[C@@H](NC(=O)[C@H](Cc1ccccc1)NC(=O)[C@@H](NC(=O)CNC(=O)[C@H](CCC(=O)O)NC(=O)CSCC(=O)NCCN1C(=O)c2ccccc2C1=O)[C@@H](C)O)[C@@H](C)O)C(=O)N[C@@H](Cc1ccc(O)cc1)C(=O)N[C@@H](CC(C)C)C(=O)N[C@@H](CC(=O)O)C(=O)N[C@@H](CCCCN)C(=O)N[C@@H](CCC(N)=O)C(=O)N[C@@H](C)C(=O)N[C@@H](C)C(=O)NC(C)(C)C(=O)N[C@@H](CC(C)C)C(=O)N[C@@H](Cc1ccccc1)C(=O)N[C@H](C(=O)N[C@@H](CC(N)=O)C(=O)N[C@@H](Cc1c[nH]c2ccccc12)C(=O)N[C@@H](CC(C)C)C(=O)N[C@@H](CC(C)C)C(=O)N[C@@H](C)C(=O)NCC(=O)NCC(=O)N1CCC[C@H]1C(=O)N[C@@H](CO)C(=O)N[C@@H](CO)C(=O)NCC(=O)N[C@@H](C)C(=O)N1CCC[C@H]1C(=O)N1CCC[C@H]1C(=O)N1CCC[C@H]1C(=O)N[C@@H](CO)C(=O)N[C@@H](CCCCN)C(N)=O)C(C)C` [Compound 145] (X1-EGTFTSDYSIYLDKQAA[Aib]LFVNWLLAGGPSSGAPPPSK-NH2): the EC50 on GLP-1R [1] was above 1000 nM; on GIP-R (read-out: EC50 GIP-R/nM, Table 3, cAMP), below 1 nM; on GIP-R (read-out: EC50 GIP-R/nM, Table 3A, cAMP) it was below 1 nM; at GLP-1R [2] (EC50 GLP-1R/nM, Table 3, cAMP), 1 to 10 nM; on GLP-1R [2] (EC50 GLP-1R/nM, Table 3A, cAMP), 1 to 10 nM. Besides, the Emax on GIP-R (Table 3, cAMP) was 125%; at GIP-R (Table 3A, cAMP), 125%; at GLP-1R [2] (Table 3, cAMP), 100 to 104%; on GLP-1R [2] (Table 3A, cAMP) it was 100 to 104%.
As to `CC[C@H](C)[C@H](NC(=O)[C@H](CO)NC(=O)[C@H](Cc1ccc(O)cc1)NC(=O)[C@H](CC(=O)O)NC(=O)[C@H](CO)NC(=O)[C@@H](NC(=O)[C@H](Cc1ccccc1)NC(=O)[C@@H](NC(=O)CNC(=O)[C@H](CCC(=O)O)NC(=O)C(C)(C)C(=O)NCCn1ncc2ccccc2c1=O)[C@@H](C)O)[C@@H](C)O)C(=O)N[C@@H](Cc1ccc(O)cc1)C(=O)N[C@@H](CC(C)C)C(=O)N[C@@H](CC(=O)O)C(=O)N[C@@H](CCCCN)C(=O)N[C@@H](CCC(N)=O)C(=O)N[C@@H](C)C(=O)N[C@@H](C)C(=O)NC(C)(C)C(=O)N[C@@H](CCC(=O)O)C(=O)N[C@@H](Cc1ccccc1)C(=O)N[C@H](C(=O)N[C@@H](CC(N)=O)C(=O)N[C@@H](Cc1c[nH]c2ccccc12)C(=O)N[C@@H](CC(C)C)C(=O)N[C@@H](CC(C)C)C(=O)N[C@@H](C)C(=O)NCC(=O)NCC(=O)N1CCC[C@H]1C(=O)N[C@@H](CO)C(=O)N[C@@H](CO)C(=O)NCC(=O)N[C@@H](C)C(=O)N1CCC[C@H]1C(=O)N1CCC[C@H]1C(=O)N1CCC[C@H]1C(=O)N[C@@H](CO)C(=O)N[C@@H](CCCCN)C(N)=O)C(C)C` [Compound 116], the EC50 is above 1000 nM on GLP-1R [1]; 10 to 100 nM on GIP-R (EC50 GIP-R/nM, Table 3, cAMP); 10 to 100 nM on GIP-R (EC50 GIP-R/nM, Table 3A, cAMP); below 0.1 nM on GLP-1R [2] (EC50 GLP-1R/nM, Table 3, cAMP); below 0.1 nM at GLP-1R [2] (EC50 GLP-1R/nM, Table 3A, cAMP). The Emax on GIP-R (Table 3, cAMP) is 50%; on GIP-R (Table 3A, cAMP), 50%; at GLP-1R [2] (Table 3, cAMP), 98%; on GLP-1R [2] (Table 3A, cAMP), 98%.
`CCCCCCCCCCCCCCCC(=O)N[C@@H](CCC(=O)NCCCC[C@H](NC(=O)[C@H](CO)NC(=O)[C@@H]1CCCN1C(=O)[C@@H]1CCCN1C(=O)[C@@H]1CCCN1C(=O)[C@H](C)NC(=O)CNC(=O)[C@H](CO)NC(=O)[C@H](CO)NC(=O)[C@@H]1CCCN1C(=O)CNC(=O)CNC(=O)[C@H](C)NC(=O)[C@H](CC(C)C)NC(=O)[C@H](CC(C)C)NC(=O)[C@H](Cc1c[nH]c2ccccc12)NC(=O)[C@H](CC(N)=O)NC(=O)[C@@H](NC(=O)[C@H](Cc1ccccc1)NC(=O)[C@H](CCC(=O)O)NC(=O)C(C)(C)NC(=O)[C@H](C)NC(=O)[C@H](C)NC(=O)[C@H](CCC(N)=O)NC(=O)[C@H](CCCCN)NC(=O)[C@H](CC(=O)O)NC(=O)[C@H](CC(C)C)NC(=O)[C@H](Cc1ccc(O)cc1)NC(=O)[C@@H](NC(=O)[C@H](CO)NC(=O)[C@H](Cc1ccc(O)cc1)NC(=O)[C@H](CC(=O)O)NC(=O)[C@H](CO)NC(=O)[C@@H](NC(=O)[C@H](Cc1ccccc1)NC(=O)[C@@H](NC(=O)CNC(=O)[C@H](CCC(=O)O)NC(=O)CN(C)C(=O)CN1CCCCC1=O)[C@@H](C)O)[C@@H](C)O)[C@@H](C)CC)C(C)C)C(N)=O)C(=O)O` [Compound 205]: the EC50 at GLP-1R [1] (setting [3]) was above 1000 nM; at GIP-R (setting [4]), 1 to 10 nM; at GLP-1R [2] (setting [5]), below 0.1 nM. In addition, the Emax at GIP-R (Table 3A, cAMP) came to 61%.
On to `CC[C@H](C)[C@H](NC(=O)[C@H](CO)NC(=O)[C@H](Cc1ccc(O)cc1)NC(=O)[C@H](CC(=O)O)NC(=O)[C@H](CO)NC(=O)[C@@H](NC(=O)[C@H](Cc1ccccc1)NC(=O)[C@@H](NC(=O)CNC(=O)[C@H](CCC(=O)O)NC(=O)C1(C(=O)NCCN2C(=O)CSC2=O)CCC1)[C@@H](C)O)[C@@H](C)O)C(=O)N[C@@H](Cc1ccc(O)cc1)C(=O)N[C@@H](CC(C)C)C(=O)N[C@@H](CC(=O)O)C(=O)N[C@@H](CCCCN)C(=O)N[C@@H](CCC(N)=O)C(=O)N[C@@H](C)C(=O)N[C@@H](C)C(=O)NC(C)(C)C(=O)N[C@@H](CCC(=O)O)C(=O)N[C@@H](Cc1ccccc1)C(=O)N[C@H](C(=O)N[C@@H](CC(N)=O)C(=O)N[C@@H](Cc1c[nH]c2ccccc12)C(=O)N[C@@H](CC(C)C)C(=O)N[C@@H](CC(C)C)C(=O)N[C@@H](C)C(=O)NCC(=O)NCC(=O)N1CCC[C@H]1C(=O)N[C@@H](CO)C(=O)N[C@@H](CO)C(=O)NCC(=O)N[C@@H](C)C(=O)N1CCC[C@H]1C(=O)N1CCC[C@H]1C(=O)N1CCC[C@H]1C(=O)N[C@@H](CO)C(=O)N[C@@H](CCCCN)C(N)=O)C(C)C` [Compound 134], for which the EC50 at GLP-1R [1] was 10 to 1000 nM; on GIP-R (EC50 GIP-R/nM, Table 3, cAMP), 10 to 100 nM; on GIP-R (EC50 GIP-R/nM, Table 3A, cAMP) it was 10 to 100 nM; at GLP-1R [2], below 0.1 nM; at GLP-1R [2] (read-out: EC50 GLP-1R/nM, Table 3A, cAMP), below 0.1 nM. Besides, the Emax at GIP-R is 30%; at GLP-1R [2] it was 103 to 108%. The “(Emax) GLP-1R” value on GLP-1R [2] (Table 3A, cAMP) is listed as 103-108%.
Regarding `CCCCCCCCCCCCCCCC(=O)N[C@@H](CCC(=O)NCCCC[C@H](NC(=O)[C@H](CO)NC(=O)[C@@H]1CCCN1C(=O)[C@@H]1CCCN1C(=O)[C@@H]1CCCN1C(=O)[C@H](C)NC(=O)CNC(=O)[C@H](CO)NC(=O)[C@H](CO)NC(=O)[C@@H]1CCCN1C(=O)CNC(=O)CNC(=O)[C@H](C)NC(=O)[C@H](CC(C)C)NC(=O)[C@H](CC(C)C)NC(=O)[C@H](Cc1c[nH]c2ccccc12)NC(=O)[C@H](CC(N)=O)NC(=O)[C@@H](NC(=O)[C@H](Cc1ccccc1)NC(=O)[C@H](CCC(=O)O)NC(=O)C(C)(C)NC(=O)[C@H](C)NC(=O)[C@H](C)NC(=O)[C@H](CCC(N)=O)NC(=O)[C@H](CCCCN)NC(=O)[C@H](CC(=O)O)NC(=O)[C@H](CC(C)C)NC(=O)[C@H](Cc1ccc(O)cc1)NC(=O)[C@@H](NC(=O)[C@H](CO)NC(=O)[C@H](Cc1ccc(O)cc1)NC(=O)[C@H](CC(=O)O)NC(=O)[C@H](CO)NC(=O)[C@@H](NC(=O)[C@H](Cc1ccccc1)NC(=O)[C@@H](NC(=O)CNC(=O)[C@H](CCC(=O)O)NC(=O)C(C)(C)C(=O)NCCN1CCCCC1=O)[C@@H](C)O)[C@@H](C)O)[C@@H](C)CC)C(C)C)C(N)=O)C(=O)O` [Compound 19], the EC50 on GLP-1R [1] (setting [3]) is below 10 nM; on GIP-R (Table 3, cAMP, read-out: EC50 GIP-R/nM), 0.1 to 1 nM; on GIP-R (setting [4]), 0.1 to 1 nM; at GLP-1R [2] (Table 3, cAMP, read-out: EC50 GLP-1R/nM), below 0.1 nM; on GLP-1R [2] (setting [5]), below 0.1 nM. Besides, the Emax at GIP-R (Table 3, cAMP) was found to be 50%; at GIP-R (Table 3A, cAMP), 50%; at GLP-1R [2] (Table 3, cAMP), 93%; on GLP-1R [2] (Table 3A, cAMP), 93%.
